# Values quoted from earlier work in patent US6406529B1, “Method of reducing dentin sensitivity and compositions therefor” (MCG Research Institute, priority 1998, dated 2002).
# Conditions: 3% w/v applied to dentin; in vitro and in vivo
structure (smiles),measurement,value
O=C([O-])C(=O)O.[K+] [monopotassium-monohydrogen oxalate],Hydraulic conductance of dentin,reduced
